Test results published in article PMC3467217, “A Potent Class of GPR40 Full Agonists Engages the EnteroInsular Axis to Promote Glucose Control in Rodents” (PLoS ONE, 2012).

Legend:
[1] = rat, mouse, beagle dog and cynomolgus monkey; cited from earlier work
mouse islets [2] = assay: Mouse islet perifusion assay; type: cell-based; settings: 10 µM compound
Description: (§1) Mouse islets were isolated and tested for stimulation of GSIS as described. Human islets were purchased from Prodo labs or were obtained from the National Institutes of Health and Juvenile Diabetes Research Foundation supported Islet Cell Resource Consortium (http://icr.coh.org). Islet inositol phosphate assays were performed on islets cells that had been dispersed with trypsin. 10,000 islet cells were plated/well of a 96-well plate and were loaded with ^3H-myo-inositol (0.5 µCi/well) in RPMI overnight prior to treatment. The next day, response to different stimuli was tested in HBSS containing 10 mM LiCl and 0.1% HSA (w/v) for 1 hour at 37°C. Accumulated ^3H-inositol phosphate was measured after capture to SPA beads. Islet perifusion experiments were performed on mouse islets loaded into a Brandel Suprafusion system. Twenty islets were size-matched and loaded per perifusion chamber. Islets were perifused in KRBH containing, sequentially, 3 mM glucose, then 3 mM glucose containing 10 µM drug, 16.7 mM glucose containing 10 µM drug and finally returned to 3 mM glucose containing 10 µM drug. Insulin was measured using an insulin ELISA kit (Alpco). Fetal rat intestinal cells were isolated from e19-day old fetuses of pregnant Sprague-Dawley rats. Briefly, fetal intestines were isolated and digested in HBSS buffer containing 0.5 mg/ml collagenase (Sigma), 0.5 mg/ml of hyaluronidase (Sigma) and 0.05 mg/ml of deoxyribonuclease I (Roche) for 30 minutes at 37°C. The digestion was quenched using HBSS containing 15% FBS. Fetal rat intestinal cells were washed and cultured overnight in DMEM containing 5% FBS in 96-well plates. To test for secretion of GLP-1 and GIP in response to treatments, we incubated cells for 1 hour with treatments in KRBH buffer containing 0.05% BSA (w/v). GLP-1 and GIP1 secreted into the media was measured using ELISA kits specific for GLP-1 (Linco) or GIP (Millipore).

mouse islets [3] = assay: GSIS assay in mouse islets; type: cell-based; settings: 16.7 mM glucose
Description: as §1

PPAR delta = PPAR delta (Homo sapiens, UniProt Q03181); assay: PPAR-delta luciferase reporter assay; type: cell-based; settings: concentrations up to 10 µM
C57/Bl6 mice = assay: IPGTT in C57BL/6j mice with or without GLP-1R antagonist Ex(9-39)NH2; type: in vivo, mouse
Description: An intraperitoneal rather than oral glucose challenge was performed in order to bypass the incretin effect of an oral glucose administration.
IPGTT experiments with Ex(9–39)NH2 (Bachem) were performed with male C57BL/6j (n = 6–7/group) at 26-weeks of age. Ex(9–39)NH2 was formulated in PBS containing 0.1%BSA and dosed ip at 300 µg/kg.
(§2) For all glucose tolerance tests, glucose and insulin measurements were taken from tail vein samples at various time-points. Blood glucose values were measured on an Accu-Chek glucometer (Roche Diagnostics), while insulin levels were determined using an ELISA (Alpco).

[4] = test system: wild type and GPR40 knockout mice; assay: OGTT and GLP-1 secretion in wild type and GPR40 null mice; type: in vivo, mouse; settings: wild type mice
Description: All procedures on animals were approved by the Amgen San Francisco Institutional Animal Care and Use Committee (approved protocols #11–04 and #2007–00106). The Amgen San Francisco vivarium is an AAALAC accredited facility. Animals were housed under a 12-h light, 12-h dark cycle (lights-on 0600 h and lights-off 1800 h) and were allowed ad libidum access to chow and water. The HF/STZ mice were established as previously described. Briefly, C57BL/6j mice (Jackson labs) at 4 weeks of age were fed a high-fat diet (BioServ S1850, 35% fat) for 3-weeks and then injected with 95 mg/kg streptozotocin (Sigma) ip to induce beta cell dysfunction. The animals continued on the same high fat diet for 3–6 additional weeks. Animals were then randomized into treatment groups based on fasting blood glucose and insulin measures. NONcNZO10/LtJ (RCS10) male mice (Jackson labs) were used at 12-weeks of age and randomized for treatment based on fasting glucose levels. For OGTT experiments, drugs were formulated in 1% HPMC, 10% HPbCD, 1% Tween-80 and dosed via oral gavage. Glucose was administered at 2 g/kg 1-hour post drug dose by oral gavage.
as §2

[5] = test system: islets isolated from GPR40 knockout mice; assay: GSIS assay with islets from GPR40 knock-out mice; type: cell-based, mouse
Description: as §1

PPAR gamma = PPAR gamma (Homo sapiens, UniProt P37231); assay: PPAR-gamma luciferase assay; type: cell-based; settings: concentrations up to 10 µM
From the text: (A) GPR41 (FFAR3) aequorin assay. GPR41 was force coupled to the calcium signaling pathway by co-transfecting the cells with Gqmyri5. (B) GPR43 (FFAR2) aequorin assay. The short chain fatty acid propionate acts as a natural agonist ligand for GPR41 and GPR43. (C) GPR120 aequorin assay. The unsaturated fatty acids α-LNN and DHA act as natural agonist ligands for GPR120. (D) PPAR-gamma luciferase assay using the thiazolidinedione rosiglitazone as a positive control. […] (TIF) Click here for additional data file.

GPR40 = molecular target: T1, GPR40 (Homo sapiens, UniProt O14842); assay: Inositol phosphate accumulation assay in A9 cells stably expressing GPR40 (A9_GPR40); type: cell-based; settings: inositol phosphate assay
T1 construct: expressed in transfected cells; host or cells: CHO cell line stably expressing GPR40 and aequorin
Description: GPR40 aequorin, plasmid titration, and inositol phosphate assays were performed as described. For aequorin assays, in addition to transient transfection of GPR40 into CHO cells, a CHO cell line stably expressing both GPR40 and aequorin was generated. GLUTag cells were obtained under a license from Dr. Daniel Drucker, University of Toronto. Competition binding experiments were performed using membranes prepared from A9_GPR40 cells. […] Competition binding assays were carried out in 20 mM Hepes pH 7.5, 5 mM MgCl2, 100 mM NaCl and 0.1% (w/v) free fatty acid BSA and bound radioligand was collected on 96-well GF/C filter plates.
(A) Structure of selected GPR40 agonists. (B) GPR40 agonists were tested in parallel in vitro in an inositol phosphate accumulation assay in A9 cells stably expressing GPR40. (TIF) Click here for additional data file.

[6] = test system: fetal rat intestinal cells; assay: GLP-1 secretion assay with fetal rat intestinal cells; type: cell-based; settings: 1 hour
From the text: Increased GLP-1 and GIP would be expected to have additional benefits in type 2 diabetics. […] We tested for potential effects on incretin secretion in vitro by using cells isolated from fetal rat intestines.
Mouse islets were isolated and tested for stimulation of GSIS as described. Human islets were purchased from Prodo labs or were obtained from the National Institutes of Health and Juvenile Diabetes Research Foundation supported Islet Cell Resource Consortium (http://icr.coh.org). Islet inositol phosphate assays were performed on islets cells that had been dispersed with trypsin. 10,000 islet cells were plated/well of a 96-well plate and were loaded with ^3H-myo-inositol (0.5 µCi/well) in RPMI overnight prior to treatment. The next day, response to different stimuli was tested in HBSS containing 10 mM LiCl and 0.1% HSA (w/v) for 1 hour at 37°C. Accumulated ^3H-inositol phosphate was measured after capture to SPA beads. Islet perifusion experiments were performed on mouse islets loaded into a Brandel Suprafusion system. Twenty islets were size-matched and loaded per perifusion chamber. […] Insulin was measured using an insulin ELISA kit (Alpco). […] GLP-1 and GIP1 secreted into the media was measured using ELISA kits specific for GLP-1 (Linco) or GIP (Millipore).

human islet cells = assay: Inositol phosphate assay with dispersed human islet cells; type: cell-based
Description: Mouse islets were isolated and tested for stimulation of GSIS as described. Human islets were purchased from Prodo labs or were obtained from the National Institutes of Health and Juvenile Diabetes Research Foundation supported Islet Cell Resource Consortium (http://icr.coh.org). Islet inositol phosphate assays were performed on islets cells that had been dispersed with trypsin. 10,000 islet cells were plated/well of a 96-well plate and were loaded with ^3H-myo-inositol (0.5 µCi/well) in RPMI overnight prior to treatment. The next day, response to different stimuli was tested in HBSS containing 10 mM LiCl and 0.1% HSA (w/v) for 1 hour at 37°C. Accumulated ^3H-inositol phosphate was measured after capture to SPA beads. Islet perifusion experiments were performed on mouse islets loaded into a Brandel Suprafusion system. Twenty islets were size-matched and loaded per perifusion chamber. Islets were perifused in KRBH containing, sequentially, 3 mM glucose, then 3 mM glucose containing 10 µM drug, 16.7 mM glucose containing 10 µM drug and finally returned to 3 mM glucose containing 10 µM drug. Insulin was measured using an insulin ELISA kit (Alpco). Fetal rat intestinal cells were isolated from e19-day old fetuses of pregnant Sprague-Dawley rats. […] GLP-1 and GIP1 secreted into the media was measured using ELISA kits specific for GLP-1 (Linco) or GIP (Millipore).

T1 sequence (O14842 whole entry): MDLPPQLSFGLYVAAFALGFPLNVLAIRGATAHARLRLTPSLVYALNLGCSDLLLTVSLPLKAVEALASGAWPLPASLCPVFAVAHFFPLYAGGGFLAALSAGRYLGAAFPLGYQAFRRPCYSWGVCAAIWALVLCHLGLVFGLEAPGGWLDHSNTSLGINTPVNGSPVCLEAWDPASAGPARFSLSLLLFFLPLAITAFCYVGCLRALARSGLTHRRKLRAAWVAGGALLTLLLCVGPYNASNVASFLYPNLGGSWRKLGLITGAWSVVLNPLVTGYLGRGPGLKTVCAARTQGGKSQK
Chain of PPAR delta (Q03181 whole entry): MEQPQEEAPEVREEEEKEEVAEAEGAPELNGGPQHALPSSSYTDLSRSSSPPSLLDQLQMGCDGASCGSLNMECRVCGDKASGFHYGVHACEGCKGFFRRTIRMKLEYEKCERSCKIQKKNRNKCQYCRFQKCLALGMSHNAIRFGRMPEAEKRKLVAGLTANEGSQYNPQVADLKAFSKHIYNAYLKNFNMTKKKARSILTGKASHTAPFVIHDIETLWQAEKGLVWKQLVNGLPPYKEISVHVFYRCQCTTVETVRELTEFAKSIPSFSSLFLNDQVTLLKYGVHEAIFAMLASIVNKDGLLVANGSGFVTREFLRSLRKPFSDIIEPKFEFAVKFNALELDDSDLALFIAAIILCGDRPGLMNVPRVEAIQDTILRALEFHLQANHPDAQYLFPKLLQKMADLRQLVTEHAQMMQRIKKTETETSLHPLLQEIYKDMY
Chain of PPAR gamma (P37231 whole entry): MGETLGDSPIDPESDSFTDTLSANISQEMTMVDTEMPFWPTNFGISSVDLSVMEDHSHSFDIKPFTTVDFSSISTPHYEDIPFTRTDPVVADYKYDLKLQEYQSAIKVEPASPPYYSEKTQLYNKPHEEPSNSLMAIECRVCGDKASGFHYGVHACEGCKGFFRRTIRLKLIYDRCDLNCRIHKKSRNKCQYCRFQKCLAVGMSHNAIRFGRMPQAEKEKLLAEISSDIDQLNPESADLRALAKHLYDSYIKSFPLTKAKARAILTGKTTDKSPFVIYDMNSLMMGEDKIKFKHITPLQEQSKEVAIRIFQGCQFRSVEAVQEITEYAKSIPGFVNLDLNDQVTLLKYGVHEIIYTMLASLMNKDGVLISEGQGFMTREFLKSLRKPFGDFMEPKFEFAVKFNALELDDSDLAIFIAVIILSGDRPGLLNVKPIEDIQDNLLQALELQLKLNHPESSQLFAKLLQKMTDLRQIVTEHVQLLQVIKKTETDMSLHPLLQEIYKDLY

**Q.** What does the source list for `COc1ccc(F)c(-c2ccc(COc3cccc([C@@H](CC(=O)O)C4CC4)c3)cc2C2=CCCC2(C)C)c1` [AM-1638]?
**A.** pharmacokinetic properties [1]: suitable for oral dosing; insulin stimulation compared to vehicle control (mouse islets [2]; 3 mM glucose): neither AMG 837 nor AM-1638 stimulated insulin; insulin secretion (mouse islets [2]; 16.7 mM glucose): increased both first and second phase insulin secretion; increase of insulin secretion, fold from that of AMG 837 (mouse islets [3]): 3–4 fold; EC50 (mouse islets [3]; read-out: EC50 for potentiation of insulin secretion): 0.99 ± 0.15 µM; activation of PPAR delta (PPAR delta): did not activate; Glucose AUC reduction (C57/Bl6 mice; AM-1638 60 mg/kg alone): ~53%; Glucose AUC reduction (C57/Bl6 mice; AM-1638 60 mg/kg in the presence of exendin(9-39)NH2 300 µg/kg ip): ~25%; improvement in pre- and post-challenge glucose levels ([4]; OGTT, single oral dose): evident in wild type; plasma GLP-1 levels ([4]; single dose 100 mg/kg): elicited an increase; GSIS response of GPR40 knockout islets [5]: did not respond; activation of PPAR gamma (PPAR gamma): did not activate; intrinsic activity, fold greater than AMG 837 (GPR40): ~2 fold; EC50 (GPR40; 1-hour accumulation, read-out: Half-maximal potency): 0.0131 ± 0.0011 µM; GLP-1 release in vitro [6]: could stimulate GLP-1 release; IP production efficacy, fold greater than AMG 837 (human islet cells): 8–10 ×
